Holding throughout (format): in vivo, rat
The test system of test [1] is rats following MCAO. Put plainly: Elevated body swing test after MCAO. Conditions: 30 days after MCAO; p=0.009. The method, then:
MCAO surgeries were performed as described elsewhere (Vendrame M, Cassady C J, Newcomb J, Butler T, Pennypacker K R, Zigova T, et al. Stroke. 2004; 35:2390-2395). Briefly, rats were anesthetized with isoflurane, and the right common carotid and external carotid arteries were exposed using blunt dissection techniques. The vagus nerve was separated from common carotid artery and the external carotid artery was ligated proximally, and transected near the bifurcation. An embolus 40 mm in length (4.0 siliconized monofilament) was inserted into the external carotid artery and fed distally into the origin of the middle cerebral artery (˜25 mm from insertion) through the internal carotid artery. Blood samples were taken and analyzed using an i-STAT handheld analyzer for hemoglobin, hematocrit, ionized calcium, glucose, sodium, potassium, pH, pCO2, HCO3, TCO2, base excess, pO2, and O2. Cerebral blood flow was recorded using a Laser Doppler Monitor (Moor Instruments) to verify occlusion. […]
The animal was placed in a Plexiglas box (40×40×35.5 cm), allowed to habituate for 2 minutes and attain a neutral position, defined as having all four paws on the ground. […] A swing was recorded whenever the animal moved its head out of the vertical axis to the right or left over […]. Swings were recorded using a hand counter. […]

The subject of test [2] is rats following MCAO. Put plainly: Spontaneous activity (automated activity monitor) after MCAO. Conditions: 1 month post MCAO. On the procedure: (§1) MCAO surgeries were performed as described elsewhere (Vendrame M, Cassady C J, Newcomb J, Butler T, Pennypacker K R, Zigova T, et al. Stroke. 2004; 35:2390-2395). Briefly, rats were anesthetized with isoflurane, and the right common carotid and external carotid arteries were exposed using blunt dissection techniques. The vagus nerve was separated from common carotid artery and the external carotid artery was ligated proximally, and transected near the bifurcation. An embolus 40 mm in length (4.0 siliconized monofilament) was inserted into the external carotid artery and fed distally into the origin of the middle cerebral artery (˜25 mm from insertion) through the internal carotid artery. Blood samples were taken and analyzed using an i-STAT handheld analyzer for hemoglobin, hematocrit, ionized calcium, glucose, sodium, potassium, pH, pCO2, HCO3, TCO2, base excess, pO2, and O2. Cerebral blood flow was recorded using a Laser Doppler Monitor (Moor Instruments) to verify occlusion. Afterwards, the embolus was ligated permanently into the vessel and the neck incision was closed. Animals were treated with Ketoprofen IM (10 mg/kg) for three days post-surgery.
(§2) For the NAGH studies, vehicle or NAGH were prepared fresh each day. Daily subcutaneous injections (s.c) were administered beginning about 24 hours after MCAO and continued daily to about 72 hours post-surgery (FIG. 1). Animals received a total of 3 injections. A total of 84 animals were randomly assigned into 2 groups: Rats treated with vehicle (40% DMSO in sterile saline, n=42), or rats treated with 0.86 mg/kg NAGH (n=42).
For NAD testing, a total of 32 animals were randomly assigned into 2 groups: Vehicle (n=16), and rat treated with 2.8 mg/kg NAD (n=16). Vehicle consisted of 40% DMSO in sterile saline.
Spontaneous Activity was measured during both the day (1 hr) and night (12 hrs) using an automated activity monitor (VersaMax, Accuscan Instruments, Inc). Spontaneous Activity was measured prior to stroke to establish the normal baseline for each individual animal as well as 1 month after the MCAO. The animals were placed in a Plexiglas box and allowed to roam freely. There is a three dimensional infrared array in this box and when a beam is broken, activity is recorded. A total of sixteen parameters were measured including: Vertical movement, Horizontal movement, and Stereotypic activity were selected for analysis: Horizontal activity (HA), Total distance travelled (TD), Number of movements (MVN), Movement time (MVT), Vertical activity (VA), Number of vertical movements (VMN), vertical time (VT), Stereotype counts (SC), Number of Stereotypy (SN), Stereotypy time (ST), Clockwise rotation (CR), counterclockwise rotation (CCR), Margin distance (MD), Marginal time (MT), Center distance (CD), and Center time (CT). The data are presented as mean+SEM of percent of baseline behavior.

For test [3], the system named is rats following MCAO. As to the kind of experiment: White matter injury, Luxol Fast Blue staining after MCAO. Conditions: 30 days post-stroke. On the procedure: as §1, §2
To evaluate white matter injury, coronal brain sections from each the animals were stained with Luxol Fast Blue (LFB; Sigma-Aldrich). For Luxol Fast Blue (LFB) staining, slides were dehydrated in 95% ethanol and incubated in LFB solution at 56° C. overnight. The following day slides were rinsed in 95% ethanol and distilled water and differentiated in 0.1% lithium carbonate solution for 20 s followed by 70% ethyl alcohol for 30 s, and finally rinsed in distilled water. After complete gray and white matter differentiation, slides were dehydrated and placed under coverslips with DPX. The quantitative analysis for demyelination in LFB staining section was performed as described previously with some modification (Virgili, Espinosa-Parrilla et al. 2011; Yu, Gong et al. 2012). LFB stained area was measured on the randomly selected sections (n=21-23 animals/group) to assess demyelination. The extent of the LFB positive area was quantified using a pixel grayscale approach in ImageJ software (National Institute of Health, USA). […] Once calibrated, the amount of LFB staining was measured as the percentage of hemispheric area using ImageJ software.

For `Cl.N=C(Nc1cccc2ccccc12)Nc1cccc2ccccc12` [NAGH, N,N′-di-1-Naphthylguanidine hydrochloride], the “EBST bias vs DMSO” value in test [1] is “significantly less bias”. In addition, in test [2] (1-hr test), the “Daytime horizontal activities vs DMSO” value is on record as “no significant differences”. Besides, the “Daytime vertical time (VT) vs DMSO” value in test [2] (1-hr test, p=0.01) was “significantly less active”. Also, in test [2] (1-hr test, p=0.03), the “Daytime vertical activity (VA) vs DMSO” value is “significantly less active”. In test [2] (1-hr test, p=0.15), the “Daytime number of vertical movements (VMN) vs DMSO” value is “more active than DMSO group”. For the same molecule, the “Daytime stereotypy activity (SC, SN, ST) decrease vs DMSO” value in test [2] (1-hr test, p>0.05) is “failed to reach a statistically significant level”. Besides, in test [2] (12-hr test), the “Nighttime horizontal parameters decrease vs DMSO” value is “did not reach statistical significance” and the “Nighttime stereotypic behavior (SC, SN, ST) vs DMSO” value is given as “did not show any significant difference”. Besides, the “Nighttime vertical activity (VA) vs DMSO” value in test [2] (12-hr test, p=0.01) was “significantly less active”. The “Nighttime number of vertical movements (VMN) vs DMSO” value in test [2] (12-hr test, p=0.015) is “significantly more active”. In test [2] (12-hr test, p=0.03), the “Nighttime vertical time (VT) vs DMSO” value is on record as “significantly less active”. Besides, the “White matter tracts (LFB) vs DMSO” value in test [3] is given as “white matter tracts were more intact”. Further, in test [3] (p<0.05 vs DMSO), the “Percent change in LFB staining from contralateral to ipsilateral hemisphere” value is reported as −0.73+7.7%. In test [3] (NAGH 0.86 mg/kg s.c. x3, n=22), the “LFB staining, ischemic hemisphere (percentage of hemispheric area)” value is 10.32±0.48% and the “LFB staining, non-ischemic hemisphere (percentage of hemispheric area)” value is on record as 9.81±0.38%.

For the origin of these results see patent US9636311B2, “N,N′-di-1 naphthylguanidine HCl (NAGH) and N,N′-di-p-nitrophenylguanidine HCl (NAD) treatment for stroke at delayed timepoints” (University of South Florida, priority 2012, dated 2017).
